23 compounds from patent US20100311827A1, “Chlorogenic acid derivatives and their use as anti-fungal agents” (priority 2006, published 2010) can be followed below.

In series [1] the test system is Candida albicans (ATCC90028). Nature of the series: Broth dilution anti-fungal susceptibility (NCCLS M27-A2), MIC. It is filed as cell-based. The conditions noted are these: MICs read at 80% inhibition; for MIC: Candida albicans, ATCC90028, Table 1, 35° C., 18 to 24 hours, tested 0.12 to 64 μg/ml. As for the experimental part:
(§1) The anti-fungal activity of the compounds according to the invention were evaluated against Candida albicans (ATCC90028), Cryptococcus neoformans (ATCC32045), and Aspergillus fumigatus (ATCC13073) according to NCCLS guidelines (NCCLS reference method for broth dilution anti-fungal susceptibility testing of yeasts; approved standard-second edition, M27-A2, National Committee for Clinical Laboratory Standards, Villanova, Pa. 2003; and NCCLS reference method for broth dilution anti-fungal susceptibility testing of filamentous fungi; approved standard, M38-A, National Committee for Clinical Laboratory Standards, Villanova, Pa. 2002).
(§2) The medium required for the evaluation of anti-fungal activity was prepared as follows. RPMI 1640 broth+MOPS, pH adjusted and filter sterilized. Sabouraud Dextrose Agar (SDA) plates were used for growing fungi.
(§3) All test or candidate compounds were prepared as 5 mg/ml stock solutions in DMSO and further diluted according to the NCCLS guidelines with sterile water or appropriate diluent. A working stock of 256 μg/ml was used to prepare 1:2 serial dilutions in 96-well plates.
(§4) The inoculums of fungi were prepared by making a direct sterile water suspension of colonies/spores from SDA plates. 0.1% Tween 20 was used for A. fumigatus for better dispersal of spores in suspension. For C. albicans and C. neoformans overnight cultures were used. A. fumigatus required longer incubation. Each fungal suspension was adjusted to read between 70 and 75% transmittance at 530 nm (0.5 McFarland Standard). These suspensions were further diluted 1/1000 in appropriate broth for inoculating the 96-well plates.
(§5) All plates were incubated at 35° C. for the following times: 18 hours to 24 hours for C. albicans, 48 hours for A. fumigatus, and 48 to 72 hours for C. neoformans.
(Broth dilution looks for growth in wells or tubes with falling amounts of substance.)

For the next series, the system named is Candida krusei ATCC6258. Briefly: Broth dilution anti-fungal susceptibility, MIC (as in Example 24). The format is cell-based. The note with it: Table 3 (Example 26); MICs read at 80% inhibition; 0.12 to 64 μg/ml.
Series [2] relates to Cryptococcus neoformans (ATCC32045). Briefly: Broth dilution anti-fungal susceptibility (NCCLS M27-A2), MIC. The format is cell-based. The conditions noted are these: Table 1, MICs read at 80% inhibition, 35° C., 48 to 72 hours, tested 0.12 to 64 μg/ml. As for the experimental part: as §1, §2, §3, §4, §5
The test system of series [3] is Aspergillus fumigatus (ATCC13073). Briefly: Broth dilution anti-fungal susceptibility of filamentous fungi (NCCLS M38-A), MIC. The format is cell-based. The conditions noted are these: Table 1, MICs read at 80% inhibition, 35° C., 48 hours, tested 0.12 to 64 μg/ml. As for the experimental part:
as §1, §2, §3, §4, §5

Another series concerns brine shrimp. The format is in vivo. The note with it: at 100 μg/ml. As for the experimental part: The general in vitro toxicity of these compounds can be tested using the Brine Shrimp Lethality assay, as described in Mclaughlin, J. L. in Methods in Plant Biochemistry. Ed. K. Hostettmann, Academic Press, London, 1991; Vol. 6, pp. 1-32. Typically, candidate compounds are diluted in seawater to a suitable concentration and added to second instar larvae of Artemia salina. After a suitable period of time, for example 24 hours, the survivors are counted. In vitro acute toxicity testing of a compound of Formula I can also be performed using mammalian cell lines (see, for example, Ekwall, B., Ann. N.Y. Acad. Sci., (1983) 407:64-77). Selection of an appropriate cell line is dependent on the potential application of the candidate compound and can be readily determined by one skilled in the art.
To test the general toxicity of these compounds, Brine Shrimp Lethality assay was carried out according to Mclaughlin, J. L. in Methods in Plant Biochemistry. Ed. K. Hostettmann, Academic Press, London, 1991; Vol. 6, pp. 1-32. The compounds were tested at 100 μg/ml.

SMILES strings stand for the structures. Values after ≈ are worked out from the molar mass of the structure shown. Some results are limits rather than exact numbers.

Take `C[C@@H]1[C@H](O)[C@@H](C)/C=C/C=C/C=C/C=C/C=C/C=C/C=C/[C@H](O[C@@H]2O[C@H](C)[C@@H](O)[C@H](N)[C@@H]2O)C[C@@H]2O[C@](O)(C[C@@H](O)C[C@@H](O)[C@H](O)CC[C@@H](O)C[C@@H](O)CC(=O)O[C@H]1C)C[C@H](O)[C@H]2C(=O)O` [Amphotericin B, reference compound]: the “MIC C. albicans” value in series [1] (Table 3 (Example 26, additional testing), 0.12 to 64 μg/ml) stood at 0.5 µg/mL (≈ 0.541 µM). In addition, the “MIC C. krusei” value with Candida krusei ATCC6258 worked out at 1 µg/mL (≈ 1.08 µM).
The MIC is the lowest concentration that inhibits growth of the organism. A low value points to inhibition by little substance. With `CCCCCCCCOc1ccc(NC(=O)C2(O)CC(OC(=O)/C=C/c3ccc(O)c(O)c3)C3OC(C)(C)OC3C2)cc1` (centres unmarked) [Compound 1], the MIC is 16 µg/mL (≈ 26.8 µM) in series [1], 2 µg/mL (≈ 3.35 µM) in series [2] and > 64 µg/mL in series [3]. Moreover, in the series with brine shrimp, the “% BL (brine shrimp lethality)” value came to 100.0%.
For `CCCCCCCCOc1ccc(NC(=O)C2(O)CC(O)C(O)C(OC(=O)/C=C/c3ccc(O)c(O)c3)C2)cc1` (centres unmarked) [Compound 2] the same measures were 8 µg/mL (≈ 14.3 µM), 2 µg/mL (≈ 3.59 µM), > 64 µg/mL and 50.0%.
As for `CCCCCCCCOc1ccc(NC(=O)C(COC(C)(C)C)NC(=O)C2(O)CC(OC(=O)/C=C/c3ccc(O)c(O)c3)C3OC(C)(C)OC3C2)cc1` (centres unmarked) [Compound 3], the MIC in series [1] is 32 µg/mL (≈ 43.2 µM); in series [2], 2 µg/mL (≈ 2.7 µM); in series [3] it was > 64 µg/mL. Also, the “% BL (brine shrimp lethality)” value in the series with brine shrimp turned out to be 31.3%.
For `CCCCCCCCOc1ccc(NC(=O)C(NC(=O)C2(O)CC(OC(=O)/C=C/c3ccc(O)c(O)c3)C3OC(C)(C)OC3C2)C(C)OC(C)(C)C)cc1` (centres unmarked) [Compound 4] the same measures were 32 µg/mL (≈ 42.4 µM), 4 µg/mL (≈ 5.3 µM), > 64 µg/mL and 6.2%.
For `CCCCCCCCOc1ccc(NC(=O)C(CC(=O)OC(C)(C)C)NC(=O)C2(O)CC(OC(=O)/C=C/c3ccc(O)c(O)c3)C3OC(C)(C)OC3C2)cc1` (centres unmarked) [Compound 5] the same measures were > 64 µg/mL, 2 µg/mL (≈ 2.6 µM), > 64 µg/mL and 56.2%.
For `CCCCCCCCOc1ccc(NC(=O)C(CCCNC(=O)OC(C)(C)C)NC(=O)C2(O)CC(OC(=O)/C=C/c3ccc(O)c(O)c3)C3OC(C)(C)OC3C2)cc1` (centres unmarked) [Compound 6] the same measures were > 64 µg/mL, 2 µg/mL (≈ 2.46 µM), > 64 µg/mL and 12.5%.
With `CCCCCCCCOc1ccc(NC(=O)C(COC(C)(C)C)NC(=O)C2(O)CC(O)C(O)C(OC(=O)/C=C/c3ccc(O)c(O)c3)C2)cc1` (centres unmarked) [Compound 7], the results for the minimal inhibitory concentration (MIC) in series [1], in series [2] and in series [3] were 4 µg/mL (≈ 5.71 µM), 2 µg/mL (≈ 2.85 µM) and > 64 µg/mL, respectively. Moreover, the “% BL (brine shrimp lethality)” value in the series with brine shrimp is reported as 31.1%.
Regarding `CCCCCCCCOc1ccc(NC(=O)C(CC(=O)OC(C)(C)C)NC(=O)C2(O)CC(O)C(O)C(OC(=O)/C=C/c3ccc(O)c(O)c3)C2)cc1` (centres unmarked) [Compound 9], the MIC in series [1] was 2 µg/mL (≈ 2.74 µM); in series [2] it was 2 µg/mL (≈ 2.74 µM); in series [3], > 64 µg/mL. In addition, the “% BL (brine shrimp lethality)” value with brine shrimp is recorded as 37.5%.
On to `CCCCCCCCOc1ccc(NC(=O)C(CCCNC(=O)OC(C)(C)C)NC(=O)C2(O)CC(O)C(O)C(OC(=O)/C=C/c3ccc(O)c(O)c3)C2)cc1` (centres unmarked) [Compound 10], for which the MIC in series [1] is 2 µg/mL (≈ 2.59 µM); in series [2], 1 µg/mL (≈ 1.3 µM); in series [3], > 64 µg/mL. Also, in the series on brine shrimp, the “% BL (brine shrimp lethality)” value was 25.0%.
In the same order, the values of `CCCCCCCCOc1ccc(NC(=O)C(CO)NC(=O)C2(O)CC(O)C(O)C(OC(=O)/C=C/c3ccc(O)c(O)c3)C2)cc1` (centres unmarked) [Compound 11] are > 64 µg/mL, 4 µg/mL (≈ 6.2 µM), > 64 µg/mL and 18.8%.
As to `CCCCCCCCOc1ccc(NC(=O)C(CC(=O)O)NC(=O)C2(O)CC(O)C(O)C(OC(=O)/C=C/c3ccc(O)c(O)c3)C2)cc1` (centres unmarked) [Compound 13], the values for the MIC in series [1], in series [2] and in series [3] were 64 µg/mL (≈ 95.1 µM), 16 µg/mL (≈ 23.8 µM) and > 64 µg/mL, respectively. In addition, the “% BL (brine shrimp lethality)” value with brine shrimp was 6.3%.
In the same order, the values of `CCCCCCCCOc1ccc(NC(=O)C(CCCN)NC(=O)C2(O)CC(O)C(O)C(OC(=O)/C=C/c3ccc(O)c(O)c3)C2)cc1` (centres unmarked) [Compound 14] are 4 µg/mL (≈ 5.95 µM), 1 µg/mL (≈ 1.49 µM), 16 µg/mL (≈ 23.8 µM) and 37.5%.
In the same order, the values of `CCCCCCCCOc1ccc(NC(=O)C(CCCNC(=O)OC(C)(C)C)NC(=O)C2(O)CC(O)C(O)C(OC(=O)CCc3ccc(O)c(O)c3)C2)cc1` (centres unmarked) [Compound 15] are > 64 µg/mL, 4 µg/mL (≈ 5.17 µM), > 64 µg/mL and 21.1%.
For `CCCCCCCCOc1ccc(NC(=O)C(CCCN)NC(=O)C2(O)CC(O)C(O)C(OC(=O)CCc3ccc(O)c(O)c3)C2)cc1` (centres unmarked) [Compound 16] the same measures were 16 µg/mL (≈ 23.7 µM), 8 µg/mL (≈ 11.9 µM), 64 µg/mL (≈ 95 µM) and 10.5%.
Consider `CCCCCCCCOc1ccc(NC(=O)C(CCCNC(=O)OC(C)(C)C)NC(=O)C2(O)CC(OC(=O)/C=C/c3ccc(O)cc3)C3OC(C)(C)OC3C2)cc1` (centres unmarked) [Compound 17], for which the minimal inhibitory concentration (MIC) in series [1], in series [2] and in series [3] was > 64 µg/mL each time. For the same compound, the “% BL (brine shrimp lethality)” value in the series on brine shrimp was found to be 0.0%.
As to `CCCCCCCCOc1ccc(NC(=O)C(CCCNC(=O)OC(C)(C)C)NC(=O)C2(O)CC(O)C(O)C(OC(=O)/C=C/c3ccc(O)cc3)C2)cc1` (centres unmarked) [Compound 18], the MIC in series [1], in series [2] and in series [3] was > 64 µg/mL in each case. Further, in the series with brine shrimp, the “% BL (brine shrimp lethality)” value is given as 31.6%.
Regarding `CCCCCCCCOc1ccc(NC(=O)C(CCCN)NC(=O)C2(O)CC(O)C(O)C(OC(=O)/C=C/c3ccc(O)cc3)C2)cc1` (centres unmarked) [Compound 19], the MIC in series [1] came out at 8 µg/mL (≈ 12.2 µM); in series [2], 4 µg/mL (≈ 6.1 µM); in series [3], 32 µg/mL (≈ 48.8 µM). Further, the “% BL (brine shrimp lethality)” value with brine shrimp stood at 100%.
Take `CCCCCCCCOc1ccc(NC(=O)C(CCCNC(=O)OC(C)(C)C)NC(=O)C2(O)CC(OC(=O)C(CCc3ccc(O)cc3)NC(=O)OCC3c4ccccc4-c4ccccc43)C3OC(C)(C)OC3C2)cc1` (centres unmarked) [Compound 20]: the MIC in series [1], in series [2] and in series [3] was > 64 µg/mL throughout. Further, the “% BL (brine shrimp lethality)” value in the series on brine shrimp is 10.5%.
On to `CCCCCCCCOc1ccc(NC(=O)C(CCCNC(=O)OC(C)(C)C)NC(=O)C2(O)CC(OC(=O)C(N)CCc3ccc(O)cc3)C3OC(C)(C)OC3C2)cc1` (centres unmarked) [Compound 21], for which the MIC in series [1], in series [2] and in series [3] was > 64 µg/mL throughout. Further, in the series with brine shrimp, the “% BL (brine shrimp lethality)” value turned out to be 47.7%.
As for `CCCCCCCCOc1ccc(NC(=O)C(CCCNC(=O)OC(C)(C)C)NC(=O)C2(O)CC(O)C(O)C(OC(=O)C(N)CCc3ccc(O)cc3)C2)cc1` (centres unmarked) [Compound 22], the MIC in series [1] is > 64 µg/mL; in series [2], 4 µg/mL (≈ 5.08 µM); in series [3], > 64 µg/mL. Moreover, the “% BL (brine shrimp lethality)” value with brine shrimp was 36.8%.
As for `CCCCCCCCOc1ccc(NC(=O)C(CCCN)NC(=O)C2(O)CC(O)C(O)C(OC(=O)C(N)CCc3ccc(O)cc3)C2)cc1` (centres unmarked) [Compound 23], the results for the MIC in series [1], in series [2] and in series [3] were 64 µg/mL (≈ 93.2 µM), 2 µg/mL (≈ 2.91 µM) and > 64 µg/mL, respectively. For the same compound, the “% BL (brine shrimp lethality)” value in the series on brine shrimp worked out at 73.7%.
On to `OC(Cn1cncn1)(Cn1cncn1)c1ccc(F)cc1F` [Fluconazole, reference compound], for which the MIC was 0.25 µg/mL (≈ 0.816 µM) in series [1], 0.5 µg/mL (≈ 1.63 µM) in series [2] and > 64 µg/mL in series [3].
